# Assay results from patent publication US20240269139A1, “COMPOUNDS FOR TARGETED PROTEIN DEGRADATION OF KINASES” (DANA-FARBER CANCER INSTITUTE, INC., priority 2020, published 2024).
# Where two headings read alike, the source gives them in different places.
# How the values were obtained:
# Type in all cases: cell-based
# [1] = target: protein kinases (human kinome) (Homo sapiens, UniProt O43683); conditions: for logFC: BUB1 (O43683); for logFC BUB1 (O43683): direction down
# [2] = target: protein kinases (human kinome) (Homo sapiens, UniProt Q14289); conditions: for logFC: PTK2B (Q14289-1) protein abundance, degrader vs DMSO, down
# [3] = target: T1, protein kinases (human kinome) (Homo sapiens, UniProt Q14CZ7); conditions: Accession Q14CZ7, direction down
# T1 sequence (Q14CZ7 1-662): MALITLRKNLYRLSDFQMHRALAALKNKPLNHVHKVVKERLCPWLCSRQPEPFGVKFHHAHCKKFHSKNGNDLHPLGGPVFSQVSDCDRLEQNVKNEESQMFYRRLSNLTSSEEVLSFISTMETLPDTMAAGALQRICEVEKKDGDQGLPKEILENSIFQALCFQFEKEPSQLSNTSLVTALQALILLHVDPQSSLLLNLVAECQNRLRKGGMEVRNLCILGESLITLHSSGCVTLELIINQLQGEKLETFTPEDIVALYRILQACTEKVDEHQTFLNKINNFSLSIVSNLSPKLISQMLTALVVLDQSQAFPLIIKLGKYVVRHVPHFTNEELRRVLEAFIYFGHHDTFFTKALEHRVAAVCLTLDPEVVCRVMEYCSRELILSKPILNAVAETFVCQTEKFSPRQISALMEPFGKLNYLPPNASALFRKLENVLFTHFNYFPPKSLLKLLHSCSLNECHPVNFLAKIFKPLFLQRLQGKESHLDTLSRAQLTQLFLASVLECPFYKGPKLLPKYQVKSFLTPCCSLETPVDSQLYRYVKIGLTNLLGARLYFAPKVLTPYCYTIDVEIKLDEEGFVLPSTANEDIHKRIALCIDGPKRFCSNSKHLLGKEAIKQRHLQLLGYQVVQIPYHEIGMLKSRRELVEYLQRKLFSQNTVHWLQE
# [4] = target: protein kinases (human kinome) (Homo sapiens, UniProt Q9HBH9); conditions: for logFC MKNK2 (Q9HBH9): Experiment wp152; for logFC: MKNK2 (Q9HBH9-1)
# [5] = target: protein kinases (human kinome) (Homo sapiens, UniProt Q00535); conditions: for logFC of CDK5: Accession Q00535
# [6] = target: protein kinases (human kinome) (Homo sapiens, UniProt Q00537); conditions: experiment wp172
# [7] = target: protein kinases (human kinome) (Homo sapiens, UniProt Q15118); conditions: PDK1 Q15118; experiment wp056
# [8] = target: protein kinases (human kinome) (Homo sapiens, UniProt Q15119); conditions: experiment wp056
# Chain of protein kinases (human kinome) (Homo sapiens, UniProt O43683) (O43683 whole entry): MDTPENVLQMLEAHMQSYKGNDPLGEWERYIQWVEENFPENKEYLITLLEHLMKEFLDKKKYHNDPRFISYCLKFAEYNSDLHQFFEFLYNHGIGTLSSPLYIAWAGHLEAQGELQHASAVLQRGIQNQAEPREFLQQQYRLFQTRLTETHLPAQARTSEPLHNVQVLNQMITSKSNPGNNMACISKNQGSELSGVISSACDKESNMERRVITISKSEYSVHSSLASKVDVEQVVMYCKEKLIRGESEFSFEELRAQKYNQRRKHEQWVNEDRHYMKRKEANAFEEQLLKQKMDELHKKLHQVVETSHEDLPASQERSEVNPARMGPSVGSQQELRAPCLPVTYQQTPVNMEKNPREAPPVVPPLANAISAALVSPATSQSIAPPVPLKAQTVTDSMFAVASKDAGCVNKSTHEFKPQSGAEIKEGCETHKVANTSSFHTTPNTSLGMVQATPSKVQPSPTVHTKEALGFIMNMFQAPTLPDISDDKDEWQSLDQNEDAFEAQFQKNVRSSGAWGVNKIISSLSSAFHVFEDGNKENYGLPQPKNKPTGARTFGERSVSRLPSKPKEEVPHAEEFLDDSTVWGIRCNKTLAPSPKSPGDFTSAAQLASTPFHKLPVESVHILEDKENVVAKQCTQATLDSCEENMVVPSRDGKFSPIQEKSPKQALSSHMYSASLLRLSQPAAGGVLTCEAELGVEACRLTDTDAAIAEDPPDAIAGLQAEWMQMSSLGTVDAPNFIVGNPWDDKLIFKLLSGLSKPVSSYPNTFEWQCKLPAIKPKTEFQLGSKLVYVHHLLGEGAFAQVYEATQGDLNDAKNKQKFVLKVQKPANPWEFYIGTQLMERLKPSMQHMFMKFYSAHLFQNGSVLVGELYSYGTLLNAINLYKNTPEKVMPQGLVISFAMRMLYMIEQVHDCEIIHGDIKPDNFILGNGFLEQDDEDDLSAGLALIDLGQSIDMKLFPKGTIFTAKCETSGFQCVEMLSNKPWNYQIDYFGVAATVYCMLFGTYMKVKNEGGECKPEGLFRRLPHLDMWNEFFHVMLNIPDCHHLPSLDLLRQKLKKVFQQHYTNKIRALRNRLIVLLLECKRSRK
# Chain of protein kinases (human kinome) (Homo sapiens, UniProt Q9HBH9) (Q9HBH9 whole entry): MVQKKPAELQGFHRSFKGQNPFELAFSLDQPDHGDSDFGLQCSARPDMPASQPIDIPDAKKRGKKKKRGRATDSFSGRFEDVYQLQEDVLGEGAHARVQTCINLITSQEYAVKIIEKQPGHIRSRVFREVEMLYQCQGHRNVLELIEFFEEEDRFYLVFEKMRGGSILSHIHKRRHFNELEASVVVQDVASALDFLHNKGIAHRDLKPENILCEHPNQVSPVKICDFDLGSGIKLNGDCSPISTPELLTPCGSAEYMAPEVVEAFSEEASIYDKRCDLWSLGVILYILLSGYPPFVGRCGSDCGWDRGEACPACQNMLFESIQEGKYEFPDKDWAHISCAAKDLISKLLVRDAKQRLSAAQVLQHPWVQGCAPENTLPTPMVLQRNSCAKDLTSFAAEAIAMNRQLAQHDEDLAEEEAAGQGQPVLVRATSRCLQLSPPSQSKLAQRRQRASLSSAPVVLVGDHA
# Chain of protein kinases (human kinome) (Homo sapiens, UniProt Q14289) (Q14289 whole entry): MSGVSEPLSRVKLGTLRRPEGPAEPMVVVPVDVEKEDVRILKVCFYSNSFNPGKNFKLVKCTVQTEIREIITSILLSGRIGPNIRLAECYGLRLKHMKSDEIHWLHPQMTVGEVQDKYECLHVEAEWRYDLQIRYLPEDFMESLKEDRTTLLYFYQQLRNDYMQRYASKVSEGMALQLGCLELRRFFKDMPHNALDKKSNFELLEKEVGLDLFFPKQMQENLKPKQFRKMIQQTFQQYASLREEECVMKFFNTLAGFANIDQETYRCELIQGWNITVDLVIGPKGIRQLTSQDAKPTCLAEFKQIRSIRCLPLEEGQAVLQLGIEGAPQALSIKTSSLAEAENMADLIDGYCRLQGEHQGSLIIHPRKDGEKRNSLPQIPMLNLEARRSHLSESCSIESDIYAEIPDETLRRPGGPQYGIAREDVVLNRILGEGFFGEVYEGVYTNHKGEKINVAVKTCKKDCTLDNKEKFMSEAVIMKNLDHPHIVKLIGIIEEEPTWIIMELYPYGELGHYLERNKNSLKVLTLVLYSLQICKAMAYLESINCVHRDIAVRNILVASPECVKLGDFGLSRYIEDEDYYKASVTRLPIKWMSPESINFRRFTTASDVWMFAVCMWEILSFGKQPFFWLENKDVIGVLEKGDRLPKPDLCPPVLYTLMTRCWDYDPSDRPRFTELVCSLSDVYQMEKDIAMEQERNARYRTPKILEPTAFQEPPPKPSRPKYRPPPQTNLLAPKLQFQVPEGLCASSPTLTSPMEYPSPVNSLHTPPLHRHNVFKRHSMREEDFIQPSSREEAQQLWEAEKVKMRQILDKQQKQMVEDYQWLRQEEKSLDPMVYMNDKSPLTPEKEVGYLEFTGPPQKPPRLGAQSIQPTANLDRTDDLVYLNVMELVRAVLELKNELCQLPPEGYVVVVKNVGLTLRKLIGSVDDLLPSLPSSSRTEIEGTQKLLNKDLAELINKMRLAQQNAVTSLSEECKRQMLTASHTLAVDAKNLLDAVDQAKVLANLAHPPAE
# Chain of protein kinases (human kinome) (Homo sapiens, UniProt Q00535) (Q00535 whole entry): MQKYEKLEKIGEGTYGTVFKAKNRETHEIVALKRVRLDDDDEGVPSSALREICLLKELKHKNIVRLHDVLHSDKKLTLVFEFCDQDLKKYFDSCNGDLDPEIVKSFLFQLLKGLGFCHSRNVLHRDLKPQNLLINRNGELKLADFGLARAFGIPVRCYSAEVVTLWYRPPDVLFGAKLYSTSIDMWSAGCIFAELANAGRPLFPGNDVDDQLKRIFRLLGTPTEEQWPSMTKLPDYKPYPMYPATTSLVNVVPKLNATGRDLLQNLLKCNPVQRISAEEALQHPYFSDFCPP
# Chain of protein kinases (human kinome) (Homo sapiens, UniProt Q15118) (Q15118 29-436): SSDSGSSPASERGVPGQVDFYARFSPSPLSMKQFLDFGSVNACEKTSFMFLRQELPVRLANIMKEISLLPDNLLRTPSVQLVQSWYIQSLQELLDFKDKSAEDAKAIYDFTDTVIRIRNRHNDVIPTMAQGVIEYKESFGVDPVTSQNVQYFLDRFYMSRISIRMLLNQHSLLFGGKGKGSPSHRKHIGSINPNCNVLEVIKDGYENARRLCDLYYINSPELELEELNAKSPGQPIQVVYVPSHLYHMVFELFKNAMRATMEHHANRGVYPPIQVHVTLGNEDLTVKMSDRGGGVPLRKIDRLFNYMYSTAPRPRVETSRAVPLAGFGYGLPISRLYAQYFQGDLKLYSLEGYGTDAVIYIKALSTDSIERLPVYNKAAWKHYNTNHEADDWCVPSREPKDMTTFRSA
# Chain of protein kinases (human kinome) (Homo sapiens, UniProt Q00537) (Q00537 whole entry): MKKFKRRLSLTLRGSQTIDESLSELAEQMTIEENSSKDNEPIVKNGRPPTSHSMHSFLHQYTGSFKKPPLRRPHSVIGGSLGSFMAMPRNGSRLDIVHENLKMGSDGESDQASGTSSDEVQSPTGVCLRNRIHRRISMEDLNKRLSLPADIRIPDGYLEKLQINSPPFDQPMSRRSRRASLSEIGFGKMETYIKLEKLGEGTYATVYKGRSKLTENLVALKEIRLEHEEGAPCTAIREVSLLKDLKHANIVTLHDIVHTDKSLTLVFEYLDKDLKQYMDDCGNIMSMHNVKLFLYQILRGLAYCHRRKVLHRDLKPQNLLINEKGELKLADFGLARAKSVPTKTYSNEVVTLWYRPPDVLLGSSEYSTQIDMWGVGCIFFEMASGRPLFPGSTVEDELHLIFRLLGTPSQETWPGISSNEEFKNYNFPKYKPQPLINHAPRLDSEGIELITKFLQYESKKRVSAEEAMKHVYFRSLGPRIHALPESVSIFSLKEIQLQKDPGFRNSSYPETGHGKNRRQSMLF
smiles,measurement,setting,value
"Cc1ccc(NC(=O)c2cccc(C(F)(F)F)c2)cc1N1Cc2cnc(Nc3ccc(N4CCN(Cc5cn(CCCCCOc6cccc7c6C(=O)N(C6CCC(=O)NC6=O)C7=O)nn5)CC4)nc3)nc2N(C)C1=O (centres unmarked) [DB0646, N-(3-(7-((6-(4-((1-(5-((2-(2,6-Dioxopiperidin-3-yl)-1,3-dioxoisoindolin-4-yl)oxy)pentyl)-1H-1,2,3-triazol-4-yl)methyl)piperazin-1-v)pyridin-3-yl)amino)-1-methyl-2-oxo-1,4-dihydropyrimido[4,5-d]pyrimidin-3(2H)-yl)-4-methylphenyl)-3-(trifluoromethyl)benzamide]",logFC,[1]; experiment wp045,−0.3378
same,logFC,[1]; experiment wp117,−0.3423
same,logFC,[1]; experiment wp152,−0.4014
same,logFC BUB1 (O43683),[1]; Experiment wp045,−0.3378
same,logFC BUB1 (O43683),[1]; Experiment wp117,−0.3423
same,logFC BUB1 (O43683),[1]; Experiment wp152,−0.4014
same,BUB1 degradation,[1]; MOLT-4 and MM.1S cell lines,degraded
same,logFC PTK2B (Q14289),"[2]; Experiment wp152, direction of change down",−2.998
same,logFC,[2]; 1 hr,−0.3955
same,logFC,[2]; 2 hr,−1.235
same,logFC,[2]; 4 hr,−2.341
same,logFC,[2]; 8 hr,−2.599
same,logFC PTK2B,"[2]; accession Q14289-1, experiment wp045, direction of change down",−2.774
same,logFC PTK2B,"[2]; accession Q14289-1, experiment wp114, direction of change down",−1.358
same,logFC PTK2B,"[2]; accession Q14289-1, experiment wp160, 1 hr, direction of change down",−0.3955
same,logFC PTK2B,"[2]; accession Q14289-1, experiment wp160, 2 hr, direction of change down",−1.235
same,logFC PTK2B,"[2]; accession Q14289-1, experiment wp160, 4 hr, direction of change down",−2.341
same,logFC PTK2B,"[2]; accession Q14289-1, experiment wp160, 8 hr, direction of change down",−2.599
same,logFC PTK2B,"[2]; accession Q14289, experiment wp152, direction of change down",−2.998
same,logFC FASTKD3,[3]; experiment wp152,−0.3418
same,logFC MKNK2 (Q9HBH9-1),"[4]; Experiment wp045, direction down",−0.4463
same,logFC MKNK2 (Q9HBH9-1),"[4]; Experiment wp117, direction down",−0.3794
same,logFC MKNK2 (Q9HBH9),[4]; direction down,−0.4447
same,logFC MKNK2 (Q9HBH9),[4]; direction of change down,−0.4447
same,logFC MKNK2 (Q9HBH9-1),"[4]; Experiment wp160, 4 hr, direction down",−0.5226
same,logFC MKNK2 (Q9HBH9-1),"[4]; Experiment wp160, 8 hr, direction down",−0.6422
same,logFC,[4]; experiment wp045,−0.4463
same,logFC,[4]; experiment wp117,−0.3794
same,logFC,"[4]; experiment wp160, 4 hr",−0.5226
same,logFC,"[4]; experiment wp160, 8 hr",−0.6422
Cc1cnc(Nc2ccc(N3CCN(CCOCCOCCNC(=O)COc4cccc5c4C(=O)N(C4CCC(=O)NC4=O)C5=O)CC3)cc2)nc1Nc1cccc(S(=O)(=O)NC(C)(C)C)c1 (centres unmarked) [JWG.118],logFC FASTKD3,[3]; experiment wp071,−0.4386
Cc1ccc(C(=O)Nc2ccc(CN3CCN(CCCOCCOCCOCCNC(=O)COc4cccc5c4C(=O)N(C4CCC(=O)NC4=O)C5=O)CC3)c(C(F)(F)F)c2)cc1C#Cc1cnc2cccnn12 (centres unmarked) [SB1.G.187],logFC of CDK5,[5]; experiment wp056,−0.4804
same,logFC of CDK5,[5]; experiment wp103,−0.5924
same,logFC of CDK5,[5]; experiment wp105,−0.6053
same,logFC CDK5 (Q00535),"[5]; Experiment wp105, direction of change down",−0.6053
same,logFC CDK5 (Q00535),[5]; Experiment wp107,−0.6778
same,logFC CDK5 (Q00535),[5]; Experiment wp172,−0.8938
same,logFC CDK5 (Q00535),"[5]; experiment wp056, direction of change down",−0.4804
same,logFC CDK5 (Q00535),"[5]; experiment wp103, direction of change down",−0.5924
same,logFC CDK5 (Q00535),"[5]; experiment wp107, direction of change down",−0.6778
same,logFC CDK5 (Q00535),"[5]; experiment wp172, direction of change down",−0.8938
same,logFC of CDK17,[6]; Accession Q00537,−0.3562
same,logFC CDK17 (Q00537),[6]; direction of change down,−0.3562
same,logFC,[7],−0.4134
same,logFC PDK1,[7],−0.4134
same,logFC PDK2,[8]; Accession Q15119-1,−0.4016
same,logFC PDK2 (Q15119-1),[8],−0.4016
